“And” between values parts separate entries of the source, which are not always exact repeats. Equal entries are not always repeated. Where two headings read alike, the source gives them in different places.
How the values were obtained:
Calu-3 cells = experiment: Cell viability assay (MTT) in Calu-3 cells; conditions: for %cell viability / cell viability: replicates; for cell viability: Calu-3 cells
Description: (§1) Subsequently, the cell viability was assessed using MTT dyes (Invitrogen) in duplicate (Supplementary file 1). The procedure was described elsewhere. The viability of drug-treated cells was expressed as percent cell viability relative to 0.5% DMSO-treated cells.

SARS-CoV-2 [1] = experiment: microbe, parasite or virus in culture; format: cell-based; conditions: for %inhibition (plaque assay) / % inhibition: replicates; for % inhibition: Calu-3 cells
Vero E6 cells = experiment: Cell viability assay (MTT) in Vero E6 cells; conditions: for %cell viability / cell viability: replicates; for cell viability: Vero E6 cells
Description: as §1

[2] = test system: plasma nonstructural protein 1; conditions: dengue patients; cited from earlier work
SARS-CoV-2 [3] = conditions: cited from earlier work
[4] = calculated based on lung: plasma ratio in cattle; cited from earlier work
dengue virus = conditions: read-out: IC50 against dengue virus, cited from earlier work
SARS-CoV-2 [5] = experiment: Antiviral activity against SARS-CoV-2 in Vero E6 cells, plaque assay; format: cell-based; conditions: for IC50 / %inhibition (plaque assay): Vero E6; for IC50: MOI 0.01, 48 hours, single drug
SARS-CoV-2 [6] = experiment: Antiviral activity against SARS-CoV-2 in Vero E6 cells, one-step qRT-PCR (single drugs, two-drug combinations, synergy analysis); conditions: for %inhibition (qRT-PCR) / IC50: Vero E6; for %inhibition (qRT-PCR) / % inhibition: replicates; for % inhibition: Vero E6 cells; for IC50: read-out: IC50 (μM) qRT-PCR, MOI 0.01, 48 hours, single drug
[7] = humans; oral 200 μg/kg; mean ± SD; cited from earlier work
[8] = Cell viability assay (MTT) in Vero E6 cells; conditions: African green monkey, %cell viability, Vero E6, replicates
Description: as §1

SARS-CoV-2 [9] = conditions: because of the expression of TMPRSS2; cited from earlier work

## ivermectin
Calu-3 cells; Calu-3, MTT, 48 hours
  CC50: 3100 nM
Calu-3 cells; Calu-3, ivermectin 0.048828 uM
  %cell viability: 101.77% and 102.10%
Calu-3 cells; Calu-3, ivermectin 0.195313 uM
  %cell viability: 103.33%
Calu-3 cells; Calu-3, ivermectin 0.390625 uM
  %cell viability: 106.67% and 102.92%
Calu-3 cells; Calu-3, ivermectin 0.78125 uM
  %cell viability: 103.89%
Calu-3 cells; Calu-3, ivermectin 1.5625 uM
  %cell viability: 100.11% and 106.94%
Calu-3 cells; Calu-3, ivermectin 3.125 uM
  %cell viability: 41.94% and 53.47%
Calu-3 cells; Calu-3, ivermectin 6.25 uM
  %cell viability: 6.67%
Calu-3 cells; Calu-3, ivermectin 12.5 uM
  %cell viability: 6.53% and 6.39%
Calu-3 cells; Ivermectin 0.05 uM alone
  cell viability: 100.07 and 99.88
Calu-3 cells; Ivermectin 0.10 uM alone
  cell viability: 99.91 and 100.11
Calu-3 cells; Ivermectin 0.20 uM alone
  cell viability: 101.94 and 95.31
Calu-3 cells; Ivermectin 0.40 uM alone
  cell viability: 94.38 and 100.45
SARS-CoV-2 [1]; Calu-3, 500 TCID50, plaque assay, single drug
  IC50: 200 nM
SARS-CoV-2 [1]; Calu-3, ivermectin 0.048828 uM
  %inhibition (plaque assay): 7.34% and 7.50% and 6.92%
SARS-CoV-2 [1]; Calu-3, ivermectin 0.195313 uM
  %inhibition (plaque assay): 43.75% and 44.69% and 42.02%
SARS-CoV-2 [1]; Calu-3, ivermectin 0.390625 uM
  %inhibition (plaque assay): 55.86% and 56.30% and 55.45%
SARS-CoV-2 [1]; Calu-3, ivermectin 0.78125 uM
  %inhibition (plaque assay): 63.14% and 86.03% and 74.50%
SARS-CoV-2 [1]; Calu-3, ivermectin 1.5625 uM
  %inhibition (plaque assay): 90.72% and 80.25% and 82.92%
SARS-CoV-2 [1]; Calu-3, ivermectin 3.125 uM
  %inhibition (plaque assay): 98.34% and 97.94% and 90.53%
SARS-CoV-2 [1]; Ivermectin 0.05 uM alone
  % inhibition: 26.67% (2×) and 33.33%
SARS-CoV-2 [1]; Ivermectin 0.10 uM alone
  % inhibition: 33.33% and 26.67% and 40.00%
SARS-CoV-2 [1]; Ivermectin 0.20 uM alone
  % inhibition: 40.00% and 66.67% and 53.33%
SARS-CoV-2 [1]; Ivermectin 0.40 uM alone
  % inhibition: 53.33% and 73.33% and 66.67%
Vero E6 cells; Vero E6, MTT, 48 hours
  CC50: 10600 nM
Vero E6 cells; Vero E6, ivermectin 0.15625 uM
  %cell viability: 102.24%
Vero E6 cells; Vero E6, ivermectin 0.3125 uM
  %cell viability: 100.47% and 100.17%
Vero E6 cells; Vero E6, ivermectin 0.625 uM
  %cell viability: 102.19%
Vero E6 cells; Vero E6, ivermectin 1.25 uM
  %cell viability: 100.11% and 101.75%
Vero E6 cells; Vero E6, ivermectin 2.5 uM
  %cell viability: 99.32%
Vero E6 cells; Vero E6, ivermectin 5 uM
  %cell viability: 83.87% and 88.89%
Vero E6 cells; Vero E6, ivermectin 10 uM
  %cell viability: 55.14% and 53.62% and 46.86%
Vero E6 cells; Vero E6, ivermectin 20 uM
  %cell viability: 21.86% and 15.62% and 14.14%
Vero E6 cells; Vero E6, ivermectin 40 uM
  %cell viability: 12.31% and 10.14% and 11.10%
Vero E6 cells; Ivermectin 0.3 uM alone
  cell viability: 100.47 and 100.17
Vero E6 cells; Ivermectin 0.6 uM alone
  cell viability: 102.19
Vero E6 cells; Ivermectin 1.2 uM alone
  cell viability: 100.11 and 101.75
Vero E6 cells; Ivermectin 2.4 uM alone
  cell viability: 99.32
[2]
  level of plasma nonstructural protein 1: reduce
SARS-CoV-2 [3]
  reduction in SARS-CoV-2 replication in vitro: up to 5000 fold
[4]
  predicted maximum lung concentration: 0.0873 µM
Dengue virus; Huh-7 cells
  IC50: ~4640 nM
Dengue virus; immortalized hepatocyte-like cell line
  IC50: ~5330 nM
SARS-CoV-2 [5]
  IC50: 1.23 µM
SARS-CoV-2 [5]; ivermectin 0.15625 uM, replicates
  %inhibition (plaque assay): 7.34% and 7.50% and 7.15%
SARS-CoV-2 [5]; ivermectin 0.3125 uM, replicates
  %inhibition (plaque assay): 29.78% and 21.00% and 25.31%
SARS-CoV-2 [5]; ivermectin 0.625 uM, replicates
  %inhibition (plaque assay): 30.26% (2×) and 32.64%
SARS-CoV-2 [5]; ivermectin 1.25 uM, replicates
  %inhibition (plaque assay): 52.64% and 56.27% and 48.59%
SARS-CoV-2 [5]; ivermectin 2.5 uM, replicates
  %inhibition (plaque assay): 63.02% and 62.70% and 66.77%
SARS-CoV-2 [5]; ivermectin 5 uM, replicates
  %inhibition (plaque assay): 78.39% and 83.51% and 83.02%
SARS-CoV-2 [6]; ivermectin 0.15625 uM
  %inhibition (qRT-PCR): 20.77% and 18.77% and 17.59%
SARS-CoV-2 [6]; ivermectin 0.3125 uM
  %inhibition (qRT-PCR): 22.09% and 7.36% and 10.53%
SARS-CoV-2 [6]; ivermectin 0.625 uM
  %inhibition (qRT-PCR): 17.18% and 18.46% and 16.20%
SARS-CoV-2 [6]; ivermectin 1.25 uM
  %inhibition (qRT-PCR): 48.83% and 48.22% and 45.15%
SARS-CoV-2 [6]; ivermectin 2.5 uM
  %inhibition (qRT-PCR): 68.53% and 77.48% and 81.10%
SARS-CoV-2 [6]; ivermectin 5 uM
  %inhibition (qRT-PCR): 80.18% and 78.28% and 78.87%
SARS-CoV-2 [6]; Ivermectin 0.3 uM alone
  % inhibition: 24.74% and 21.54% and 19.89%
SARS-CoV-2 [6]; Ivermectin 0.6 uM alone
  % inhibition: 40.13% and 29.29% and 31.22%
SARS-CoV-2 [6]; Ivermectin 1.2 uM alone
  % inhibition: 46.41% and 46.78% and 47.88%
SARS-CoV-2 [6]; Ivermectin 2.4 uM alone
  % inhibition: 68.57% and 80.79% and 75.01%
SARS-CoV-2 [6]
  IC50: 1.27 µM
[7]
  maximum plasma concentration: 0.049 ± 0.02 µM

## CCN(CC)CCCC(C)Nc1ccnc2cc(Cl)ccc12 (stereo not drawn) [Chloroquine, chloroquine]
[8]; chloroquine 40 uM
  viability at 48 h, 40 uM: 78.5%
[8]; chloroquine 160 uM
  viability at 48 h, 160 uM: 34.5%
SARS-CoV-2 [9]
  inhibition of SARS-CoV-2 in human lung cells: could not inhibit
SARS-CoV-2 [5]; Severe acute respiratory syndrome coronavirus 2, Vero C1008, Vero E6, chloroquine 0.625 uM, replicates
  inhibition at 0.625 µM: 50%
SARS-CoV-2 [5]; Severe acute respiratory syndrome coronavirus 2, Vero C1008, Vero E6, chloroquine 1.25 uM, replicates
  inhibition at 1.25 µM: 61.4%
SARS-CoV-2 [5]; Severe acute respiratory syndrome coronavirus 2, Vero C1008, Vero E6, chloroquine 2.5 uM, replicates
  inhibition at 2.5 µM: 70%
SARS-CoV-2 [5]; Severe acute respiratory syndrome coronavirus 2, Vero C1008, Vero E6, chloroquine 5 uM, replicates
  inhibition at 5 µM: 85.1%
SARS-CoV-2 [5]; Severe acute respiratory syndrome coronavirus 2, Vero C1008
  IC50: 0.83 µM
SARS-CoV-2 [5]; chloroquine 0.15625 uM, replicates
  %inhibition (plaque assay): 5.00% and 10.00%
SARS-CoV-2 [5]; chloroquine 0.3125 uM, replicates
  %inhibition (plaque assay): 15.00% and 6.06% and 11.00%
SARS-CoV-2 [5]; chloroquine 0.625 uM, replicates
  %inhibition (plaque assay): 55.50%
SARS-CoV-2 [5]; chloroquine 1.25 uM, replicates
  %inhibition (plaque assay): 73.20% and 66.30%
SARS-CoV-2 [5]; chloroquine 2.5 uM, replicates
  %inhibition (plaque assay): 75.00% and 69.50%
SARS-CoV-2 [5]; chloroquine 5 uM, replicates
  %inhibition (plaque assay): 87.00% and 85.00%
SARS-CoV-2 [6]; chloroquine 0.15625 uM
  %inhibition (qRT-PCR): 14.20% and 15.40% and 13.50%
SARS-CoV-2 [6]; chloroquine 0.3125 uM
  %inhibition (qRT-PCR): 29.59% and 23.98%
SARS-CoV-2 [6]; chloroquine 0.625 uM
  %inhibition (qRT-PCR): 47.22% and 54.26% and 49.79%
SARS-CoV-2 [6]; chloroquine 1.25 uM
  %inhibition (qRT-PCR): 51.48% and 58.46% and 54.05%
SARS-CoV-2 [6]; chloroquine 2.5 uM
  %inhibition (qRT-PCR): 67.75% and 70.05% and 70.73%
SARS-CoV-2 [6]; chloroquine 5 uM
  %inhibition (qRT-PCR): 88.11% and 84.26% and 88.40%
SARS-CoV-2 [6]; Chloroquine 0.2125 uM alone
  % inhibition: 32.17% and 30.26% and 30.74%
SARS-CoV-2 [6]; Chloroquine 0.425 uM alone
  % inhibition: 35.38% and 45.66% (2×)
SARS-CoV-2 [6]; Chloroquine 0.85 uM alone
  % inhibition: 58.25% and 55.25% and 59.67%
SARS-CoV-2 [6]; Chloroquine 1.7 uM alone
  % inhibition: 76.18% and 70.48% and 73.21%
SARS-CoV-2 [6]
  IC50: 0.89 µM

Reference: PMC9206137, “Synergistic anti-SARS-CoV-2 activity of repurposed anti-parasitic drug combinations” (BMC Pharmacology & Toxicology, 2022)
